Experimental data published in US20260242440A1, “NOVEL MEANS TO MODULATE NMDA RECEPTOR-MEDIATED TOXICITY” (FUNDAMENTAL PHARMA GMBH, priority 2018, published 2026).
“Also recorded” adds a separate entry of the source.

Experiments:
[1] = tested on: primary mouse hippocampal neurons; test: NMDA receptor induced mitochondrial membrane potential breakdown (Rh123 imaging); assay type: cell-based
Description: Coverslips with primary cultured neurons (DIV15-DIV17) were used to examine mitochondrial membrane potential (Ψm) and mitochondrial calcium signalling, which was performed at room temperature in CO2-independent culture medium (CICM) containing: 10 mM HEPES, 140 mM NaCl, 2.5 mM KCl, 1.0 mM MgCl2, 2.0 mM CaCl2, 1.0 mM Glycine, 35.6 mM Glucose and 0.5 mM Na-pyruvate. All images were obtained by a cooled-CCD camera (iXon 887, Andor) on an upright microscope (BX51WI, Olympus). Fluorescence excitation was provided by a xenon arc lamp in combination with an excitation filter wheel (MT-20, Olympus). Data were collected using Cell^R software (Olympus), analysed using ImageJ and quantified using Igor Pro (WaveMetrics). Ψm was detected with the small molecule fluorescence indicator Rhodamine 123 (Rh123; Molecular Probe™, R302). Primary cultured neurons were loaded with 4.3 μM Rh123 in CICM at 37° C. for 30 min, then washed and left in CICM for another 30 min before recording. At the end of each experiment, the mitochondrial uncoupler FCCP (5 μM, Sigma-Aldrich, Cat #C2920) was applied to the cells to reach the maximal Rh123 fluorescence intensity. Rh123 was imaged with 470±20 nm excitation and 525±25 nm emission wavelengths using a 20× objective. Rh123 fluorescence intensity was measured in the nucleus to minimize contamination from cytosolic mitochondrial signal and Rh123 fluorescence intensity was normalized to the maximum FCCP signal for each region of interest.
Mitochondrial dysfunction is a hallmark of NMDA receptor excitotoxicity and an early event en-route to neuronal death. A parameter that is often used to assess mitochondrial integrity is the mitochondrial membrane potential. A breakdown of the mitochondrial membrane potential can be observed after exposure of hippocampal or cortical neurons to NMDA and indicates excitotoxicity-associated mitochondrial dysfunction. Therefore, the inventors investigated the effect of polypeptides comprising the sequence of SEQ ID NO:5 or SEQ ID NO: 54 as well as of the control TRMP5 sequence (SEQ ID NO: 55) on mitochondrial membrane potential break down in primary mouse hippocampal neurons. Excitotoxicity leading to mitochondrial membrane potential break down was induced with bath application of 20 μM NMDA. After 11 minutes, the mitochondrial uncoupler, carbonylcyanide-p-trifluoromethoxyphenylhydrazone (FCCP) was added. Addition of FCCP leads to break-down of the mitochondrial membrane potential and served as a control of the test system.

TRPM4 channel = biological target: T1, TRPM4 channel (Homo sapiens, UniProt Q8TD43); test: TRPM4 channel function, whole-cell patch clamp in PC3 cells; assay type: cell-based; conditions: 10 μM compound, pre-incubated 30-60 min
T1 construct: PC3 cells are known to express TRPM4 channels; endogenous in cells; host or cells: PC3 prostate cancer cell line
T1 sequence (Q8TD43 whole entry): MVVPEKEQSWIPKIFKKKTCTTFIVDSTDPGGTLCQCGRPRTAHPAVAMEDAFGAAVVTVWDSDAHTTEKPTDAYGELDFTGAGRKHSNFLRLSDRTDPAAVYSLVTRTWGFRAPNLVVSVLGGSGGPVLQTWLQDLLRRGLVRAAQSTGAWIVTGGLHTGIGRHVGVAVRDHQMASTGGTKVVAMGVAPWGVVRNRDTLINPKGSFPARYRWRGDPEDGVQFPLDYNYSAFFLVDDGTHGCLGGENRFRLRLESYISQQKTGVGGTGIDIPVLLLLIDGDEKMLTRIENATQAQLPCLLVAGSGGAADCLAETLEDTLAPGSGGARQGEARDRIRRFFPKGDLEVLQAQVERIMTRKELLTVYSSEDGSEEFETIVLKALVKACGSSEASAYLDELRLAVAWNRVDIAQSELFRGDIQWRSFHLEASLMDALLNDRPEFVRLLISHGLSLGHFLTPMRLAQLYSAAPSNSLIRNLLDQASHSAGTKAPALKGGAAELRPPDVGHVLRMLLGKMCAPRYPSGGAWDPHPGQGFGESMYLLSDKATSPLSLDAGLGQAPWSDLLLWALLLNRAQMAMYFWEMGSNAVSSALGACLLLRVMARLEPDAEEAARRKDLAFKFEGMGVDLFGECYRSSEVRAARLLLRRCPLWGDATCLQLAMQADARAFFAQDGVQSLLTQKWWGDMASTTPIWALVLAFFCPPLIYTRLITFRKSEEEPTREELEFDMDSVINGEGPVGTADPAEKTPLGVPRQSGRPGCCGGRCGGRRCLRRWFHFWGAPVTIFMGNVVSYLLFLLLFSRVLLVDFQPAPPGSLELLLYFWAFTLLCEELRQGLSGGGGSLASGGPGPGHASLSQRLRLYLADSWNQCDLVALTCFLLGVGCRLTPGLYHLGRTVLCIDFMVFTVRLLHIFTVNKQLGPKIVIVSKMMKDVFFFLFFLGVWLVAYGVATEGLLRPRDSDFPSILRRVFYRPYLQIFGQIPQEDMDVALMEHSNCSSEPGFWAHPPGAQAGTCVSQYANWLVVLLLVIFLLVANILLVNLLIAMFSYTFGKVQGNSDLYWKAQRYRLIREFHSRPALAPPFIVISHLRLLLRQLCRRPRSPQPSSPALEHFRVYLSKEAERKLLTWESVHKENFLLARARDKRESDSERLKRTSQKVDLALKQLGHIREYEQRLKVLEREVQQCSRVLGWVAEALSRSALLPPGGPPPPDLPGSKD
Excerpt: To assess any direct impact of compound P4 and compound P15 on TRPM4 channel function independent of NMDA receptors, the inventors used the prostate cancer cell line PC3 and patch clamp recordings. PC3 cells are known to express TRPM4 channels (C. Holzmann et al., Oncotarget. 6, 41783-93 (2015)). TRPM4 currents in turn are characterized by their calcium dependence and outward rectification (P. Launay et al., Cell. 109, 397-407 (2002)). Briefly, whole-cell patch clamp recordings were made from PC3 cells plated on 12 mm round coverslips secured with a platinum ring in a recording chamber (OAC-1, Science Products GmbH) mounted on a fixed-stage upright microscope (BX51WI, Olympus). […] Patch electrodes (3-4 MΩ) were made from 1.5 mm borosilicate glass and filled with cesium-based solutions (in mM: CsCl, 145; NaCl, 8; HEPES, 10; MgCl2, 1; plus either EGTA, 0.2 for a free Ca^2+ concentration of zero; or EGTA, 10 and CaCl2), 9.4 for a calculated free Ca^2+ concentration of 10 μM; Maxchelator, Stanford University). Recordings were made with a Multiclamp 700B amplifier, digitized through a Digidata 1550B and acquired and analyzed using pClamp 10 software (Molecular Devices). Access resistance (range: 10-20 MΩ) was monitored regularly during voltage clamp recordings and data was rejected if changes greater than 20% occurred.

HEK293 cells = test: Luminescent cytotoxicity assay, HEK293 cells transfected with GRIN1 and GRIN2A or GRIN2B; assay type: cell-based, human; conditions: compound added 6 h after transfection; cell death 48 h after transfection
Description: HEK293 cells were cultured in Dulbecco's Modified Eagle Medium (DMEM, Gibco™ 41965-039) supplement with 10% Fetal Bovine Serum (FBS, Gibco™, 10270), 1% Sodium Pyruvate (Gibco™, 11360070), 1% MEM NEAA (GibcoT^M, 11140035) and 0.5% Penicillin-Streptomycin (P-S; Sigma, P0781) and Passagel5-25 were used for experiments.
To test the cytotoxicity of compounds according to the present invention, HEK293 cells (70-80% confluent) were transfected 24 hours after plating with both GRIN1 and GRIN2 Å or GRIN2B, respectively (1:[…]) with Lipofectamine 2000 according to manufacturer's instructions. The relative number of dead cells in the population at the indicated time points after transfection was measured with the CytoTox-Glo™ Cytotoxicity assay (Promega, G9290) according to manufacturer's instruction with minor modification. Briefly, 10% of total medium were mixed with 10 μL AAF-amino luciferin to reach a final volume at 200 μL with water, the dead cell relative luminescence units (DRLU) was measured by GloMax (Promega) in a 96 well white bottom polystyrene microplate (Corning Costar®, 3912). After all the measurements, lysis reagents have been added to the cells and 10% of lysate was used for the total cell relative luminescence units (TRLU) measurement. Cell death was calculated by the following equations: […]
For drug testing, P4, P8, P9, P13 and P15 were added to the medium at indicated concentration 6 h after transfection. DRLU, TRLU and cell death were measured and calculated 48 h after transfection.

NMDA receptor = test: NMDA-induced calcium transients (Fura2 calcium imaging); assay type: cell-based, mouse; conditions: hippocampal neurons, 6 min NMDA (20 μM) application
Description: In a further experiment, the impact of P4 and P15 on NMDA-induced calcium transients was assessed. Briefly, for calcium imaging, primary hippocampal neurons on coverslips were loaded with the cell-permeable, high-affinity ratiometric calcium indicator Fura2-AM (Invitrogen™ F1221), at 1 μM in CO2-independent culture medium (CICM; CICM contains: 10 mM HEPES, 140 mM NaCl, 2.5 mM KCl, 1.0 mM MgCl2, 2.0 mM CaCl2, 1.0 mM Glycine, 35.6 mM Glucose and 0.5 mM Na-pyruvate) for 30 min at 37° C., then washed and left in CICM for another 30 min to allow for de-esterification. Fura2 was excited at 340/11 nm and 380/11 nm, and fluorescence emission was obtained from a 40× UV compatible objective (LUMPLFLN, Olympus) through a 510/20 nm emission filter. For quantification, ImageJ was used to calculate average background-subtracted fluorescence intensities for 340 and 380 nm excitation (F340 and F380) from each neuron. Intracellular calcium levels were plotted as F340/F380 ratios over time, from which the NMDA response amplitude and area under the curve (AUC) was calculated to quantify NMDA-induced calcium influx.

[2] = tested on: primary mouse hippocampal neurons; test: NMDA induced cell death (excitotoxicity) in cultured primary neurons; assay type: cell-based; conditions: polypeptide expressed via rAAV infection on DIV3; NMDA 20 μM for 10 min; cell death assessed 24 h later
Description: Primary mouse hippocampal and cortical neurons were prepared and maintained as known. Briefly, hippocampi or cerebral cortex from P0 C57Bl/6NCrl mice were dissociated and plated at a density of 1.2*105/cm^2 in Growth Medium (GM), consisting of Neurobasal A medium (Gibco™, 10888022), 2% serum free B27™ Supplement (Gibco™, 17504044), 1% rat serum (Biowest, S2150), 0.5 mM L-Glutamine (Sigma, G7513) and 0.5% P-S. Cytosine β-D-arabinofuranoside (AraC; Sigma, C1768; 2.8 μM) was added on DIV3 to prevent the proliferation of glial cells. From DIV8, half of the medium was replaced by GM without Rat serum every 48 h until being used for experiments. 24 h before experiments, GM was replaced with transfection medium (10 mM HEPES, pH 7.4, 114 mM NaCl, 26.1 mM NaHCO3, 5.3 mM KCl, 1 mM MgCl2, 2 mM CaCl2, 30 mM glucose, 1 mM glycine, 0.5 mM C3H3NaO3, and 0.001% phenol red and 10% of phosphate-free Eagle's minimum essential medium, supplemented with 7.5 µg/ml insulin, 7.5 µg/ml transferrin and 7.5 ng/ml sodium selenite (ITS Liquid Media Supplement, Sigma-Aldrich Cat #I3146)). Primary hippocampal neurons were used in live cell imaging, cell death experiments, while cortical neurons were used for mRNA and protein extraction analysis.
All viral particles were produced and purified as known in the art. All TRPM4 derived peptides (comprising SEQ ID NO:5, or any of SEQ ID NO:46 to SEQ ID NO:56) were cloned into rAAV backbone by PCR. shRNA against mouse TRPM4 were designed by BLOCK-iT™ RNAi Designer from Thermofisher to target: […] (SEQ ID NO:44, shTRPM4-1) and […] (SEQ ID NO:45, shTRPM4-2). Scramble shRNA (shSCR) has been tested and proven to have no known targets in mice. GPI anchor ([…], e.g. used in SEQ ID NO:53) sequences were synthesized by Eurofins Genomics (Ebersberg, Germany). All primers were synthesized and all plasmids were confirmed by sequencing by Eurofins Genomics.
In order to investigate the role of TRPM4 in NMDA receptor mediated excitotoxicity, the inventors used RNA interference strategies to knock down TRPM4. Cultured primary mouse hippocampus neurons were infected on day 3 in vitro (DIV3) with recombinant adeno-associated viruses (rAAVs) providing for expression of a scramble control (shSCR), shTRPM4-1 (SEQ ID NO:44) or shTRPM4-2 (SEQ ID NO:45). On DIV15-16, neurons were challenged with N-methyl-D-aspartate (NMDA, 20 μM) for 10 min. After NMDA wash out, neurons were kept in the culture medium for another 24 h before analysis. […] Evidently, TRPM4 is thus involved in the process of NMDA receptor mediated excitotoxicity.
In a next step, the inventors tried to identify regions in the mouse TRPM4 protein potentially involved in NMDA receptor mediated excitotoxicity. For this purpose, polypeptide fragments of mouse TRPM4 protein were generated and their impact on NMDA induced excitotoxicity analysed. To do so, primary neuron cultures were infected with respective rAAVs on DIV3, challenged with NMDA (20 μM) for 10 min on DIV17 and cell death assessed 24 hours later.
The sequence of SEQ ID NO:5 in TRPM4 is located in vivo just beneath the plasma membrane. […] To test this hypothesis, the inventors created a fusion protein comprising SEQ ID NO:5 and a GPI anchor, SEQ ID NO:57. The sequence of the fusion is given in SEQ ID NO:53. Neurons infected with rAAV and expressing SEQ ID NO:47 (control) or SEQ ID NO:53 were exposed to NMDA (20 μM) for 10 min on DIV15-16, with cell death assessed after 24 h.
In a next step, the inventors created a mutant of SEQ ID NO:5, in which two adjacent phenylalanine residues where substituted by tyrosine residues (SEQ ID NO: 54). […] TRPM5 is a protein related to but nonetheless distinct to TRPM4. The region in TRPM5 corresponding to SEQ ID NO:5, SEQ ID NO:55, shares only about 60% sequence identity with SEQ ID NO:5. Neurons were infected on DIV3 with rAAVs expressing SEQ ID NO: 5, SEQ ID NO: 54 or SEQ ID NO:55 and exposed to NMDA (20 μM) for 10 min on DIV17, with cell death assessed 24 h later. […]

synaptic NMDA receptor = test: Gabazine induced calcium influx into mitochondria (synaptic NMDA receptor signalling); assay type: cell-based, mouse; conditions: primary cultured neurons, polypeptides expressed via rAAV
Description: Gabazine induced mitochondrial Ca^2+ response in primary cultured neurons is recorded and analysed as described in a previous study (Qiu et al, Nat Commun. 2013; 4:2034, incorporated herewith by reference) using a FRET calcium indicator 4mtD3cpv that specifically located to mitochondria. Briefly, mitochondrial Ca^2+ levels were detected with FRET-based and mitochondrial targeted Ca^2+ indicator 4mtD3cpv. 4mtD3cpv were excited at 430±12 nm (CFP) and 500±10 nm (YFP), and emission of CFP (470±12 nm) and YFP (535±15 nm) were separated and filtered using a DualView beam splitter (AHF Analysentechnik and MAG Biosystems), and all fluorescence images were recorded through a 20× water-immersion objective at 1 Hz.
In a further experiment the inventors assessed the impact of the polypeptide comprising the sequence of SEQ ID NO:5 and SEQ ID NO: 54, respectively, on Gabazine induced calcium influx (mitochondria), a measure of synaptic NMDA receptor signalling. The experiment was carried out in primary cultured neurons as described above.

Molecule | protection of mitochondrial membrane potential from NMDA excitotoxicity ([1]; compound applied 30 min prior to recording, bath application of NMDA) | TRPM4-like outwardly rectifying current activated by 10 μM Ca2+ (TRPM4 channel) | NMDA receptor induced cell death (HEK293 cells) | NMDA-induced calcium transients (NMDA receptor) | NMDA receptor induced mitochondrial membrane potential breakdown ([1]; polypeptides expressed via rAAV, bath application of 20 μM NMDA) | protection against NMDA induced cell death (neuroprotective effect) [2] | Gabazine induced calcium influx into mitochondria (synaptic NMDA receptor)
NCC1CCN(CC(=O)Nc2cc(Cl)c(Cl)cc2Cl)C1 (stereo not shown) [P15] | significantly protect mitochondrial membrane potential from NMDA excitotoxicity | not affected | reduced the level of NMDA receptor induced cell death | neither compound P4 nor compound P15 reduced; also recorded: neither compound P4 nor P15 reduced | – | – | –
SEQ ID NO:54: derivative of SEQ ID NO:5, having a conservative substitution of two Y for two F (NSEERAARLLLRRCPLWGEATCLQLAMQADARAYYAQDGVQSLLTQKWWGEMDSTTP; Mutant of SEQ ID NO:5 with F34Y and F35Y) | – | – | – | – | capable of preventing NMDA receptor induced mitochondrial membrane potential breakdown | only slightly less effective in reducing NMDA receptor-mediated cell toxicity than SEQ ID NO:5 | neither of these polypeptides affects synaptic NMDA receptor signalling; also recorded: not affected
